In ChEMBL document CHEMBL5046245, “Identification of Pyruvate Carboxylase as the Cellular Target of Natural Bibenzyls with Potent Anticancer Activity against Hepatocellular Carcinoma via Metabolic Reprogramming” (J Med Chem, 2022):
The source made the active and inactive calls. The calls are words filed in the database; no cut-off is given here.

Columns and labels:
MHCC97 = assay: Antiproliferative activity against human MHCC97 cells assessed as inhibition of cell growth measured after 48 hrs by MTT assay; assay type: functional, cell-based; settings: MHCC97, 48 h
[1] = Antiproliferative activity against human HCCLM3 cells assessed as inhibition of cell growth measured after 48 hrs by MTT assay; assay type: functional, cell-based; settings: HCCLM3, 48 h
HepG2 = assay: Effect on cell cycle arrest in human HepG2 cells assessed as increase accumulation of cells in G2/M phase at 20 nM measured upto 24 hrs hrs by propidium iodide staining based flow cytometry analysis; assay type: functional; settings: time hrs <=24, TDE = time-dependent effect
HCCLM3 [2] = assay: Antitumor activity against human HCCLM3 cells xenografted in NCR-nu/nu mouse assessed reduction in tumor growth at 25 to 50 mg/kg, ip administered alternate days for 21 days and measured 26 days post implantation; assay type: functional, organism-based; settings: dose 25-50 mg/kg, time 21.0 day
[3] = Systemic toxicity in NCR-nu/nu mouse bearing human HCCLM3 tumor assessed as pathological change in spleen at 25 to 50 mg/kg, ip administered alternate days for 21 days and measured 26 days post implantation by H and E staining based analysis; assay type: organism-based; settings: in vivo, 504 h, dose 25-50 mg/kg, time 21 day
SK-HEP1 = assay: Antimigratory activity in human SK-HEP1 cells overexpressing PC assessed as suppression of cell migration at 0.5 nM measured after 48 hrs by wound healing assay; assay type: functional, cell-based
HCCLM3 [4] = assay: Induction of glycolysis in PC knockout human HCCLM3 cells assessed as intracellular glucose consumption at 10 nM; assay type: functional, cell-based
HCCLM3 [5] = assay: Induction of apoptosis in human HCCLM3 cells assessed as cell rounding at 20 nM incubated for 24 hrs by DAPI staining based phase contrast microscopic analysis; assay type: functional
HCCLM3 [6] = assay: Induction of apoptosis in human HCCLM3 cells assessed as cell shrinkage at 20 nM incubated for 24 hrs by DAPI staining based phase contrast microscopic analysis; assay type: functional

With `COc1ccc(CCc2cc(OC)c(OC)c(OC)c2)cc1O` the IC50 (MHCC97) was 386 nM, the IC50 [1] was 17.7 nM and the Activity (HepG2) was “Tde”. For the same compound, the Activity (HCCLM3 [2]) was “Active”, the Activity [3] was “Non-Toxic” and the Activity (SK-HEP1) was “Active”. The Activity (HCCLM3 [4]) was “Active”, the Activity (HCCLM3 [5]) was “Active” and the Activity (HCCLM3 [6]) was “Active”.
